Source: patent EP0428132A1, “Pradimicin derivatives” (Bristol-Myers Squibb Company, priority 1989, dated 1991)
Converted amounts (≈) assume the structure as drawn. Counter-ions that a name gives are not always drawn. Like-named read-outs stand apart in the source and are kept apart here. Marks after values point to notes of the source that are not given here.

Experiments:
[1] = tested on: Candida albicans A25578; assay: In vitro antifungal activity, serial agar dilution method (Table 1a); type: cell-based
Method: (§1) The inoculum size was adjusted to 10⁶ cells/ml, and a volume of approximately 0.003 ml of fungal suspension was applied to the surface of the antibiotic containing agar plates with a multiinoculator. After incubation, the lowest concentration of antibiotic causing virtually complete inhibition of fungal growth was determined as the minimum inhibitory concentration (MIC).

[2] = tested on: Candida albicans A9540; assay: as above; type: cell-based
Method: as §1

[3] = tested on: Candida paratropicalis A25825; assay: as above; type: cell-based
Method: as §1

[4] = tested on: Candida pseudotropicalis A25802; assay: as above; type: cell-based; details: Kluyveromyces marxianus, YM agar (pH 7.0, Difco), 30°C for 2 days (yeast) or 4 days (filamentous fungi), read-out: MICs, Candida pseudotropicalis A25802
Method: as §1

[5] = tested on: Candida tropicalis A25812; assay: as above; type: cell-based
Method: as §1

[6] = tested on: Cryptococcus neoformans A15053; assay: as above; type: cell-based
Method: as §1

[7] = tested on: Trichophyton mentagrophytes A26771; assay: as above; type: cell-based
Method: as §1

[8] = tested on: Trichophyton rubrum A26761; assay: as above; type: cell-based; details: A26761, pH 7, read-out: MICs, Trichophyton rubrum A26761
Method: as §1

[9] = tested on: M. gypseum A26835; assay: In vitro antifungal activity, serial agar dilution method (Table 1a, footnote strain 4); type: cell-based, Microsporum gypseum; details: Nannizzia gypsea, A26835, pH 7, read-out: MICs, M. gypseum A26835
Method: as §1

[10] = tested on: M. canis A26834; assay: In vitro antifungal activity, serial agar dilution method (Table 1a, footnote strain 5); type: cell-based; details: Microsporum canis, A26834, pH 7, read-out: MICs, M. canis A26834
Method: as §1

[11] = Water solubility, protocol I (PBS, HPLC); type: physicochemical; details: Method I: PBS without CaCl₂ and MgCl₂.6H₂O
Method: The supernatant (2 µL) was analyzed by HPLC using the conditions specified for each compound in the Experimental Section. […] When not soluble, an additional amount of PBS (x µL) was added, sonicated, and centrifuged. When visibly soluble, the solution (2 µL) was injected to HPLC and the peak area was used for the known concentration of the sample.

[12] = tested on: Candida tropicalis A25809; assay: In vitro antifungal activity, serial agar dilution method (Table 1a); type: cell-based; details: YM agar (pH 7.0, Difco), 30°C for 2 days (yeast) or 4 days (filamentous fungi), read-out: MICs, Candida tropicalis A25809
Method: as §1

[13] = tested on: Microsporum canis WW10218; assay: as above; type: cell-based; details: WW10218, pH 7, read-out: MICs, Microsporum canis WW10218
Method: as §1

[14] = tested on: Microsporum gypseum WW1107; assay: as above; type: cell-based; details: Nannizzia gypsea, YM agar (pH 7.0, Difco), 30°C for 2 days (yeast) or 4 days (filamentous fungi), read-out: MICs, Microsporum gypseum WW1107
Method: as §1

[15] = tested on: Saccharomyces cerevisiae A25803; assay: as above; type: cell-based; details: YM agar (pH 7.0, Difco), 30°C for 2 days (yeast) or 4 days (filamentous fungi), read-out: MICs, Saccharomyces cerevisiae A25803
Method: as §1

[16] = tested on: Candida albicans A9540; assay: Intravenous Candida albicans infection mouse model, Table 2 part B; type: in vivo, mice; details: mouse, in vivo
Method: Several compounds were also evaluated in an intravenous Candida albicans […] infection mouse model. The test organism was suspended in saline approximately 10 times the median lethal dose of the fungus (10⁶ cells/mouse) were used to infect intravenously male ICR mice weighing 20 to 24 g. Groups of five mice at each dose level were given the test compounds intravenously or intramuscularly. The 50% protective dose (PD₅₀) was calculated from survival rates recorded 20 or 21 days after the fungal challenge. […]

[17] = tested on: M. gypseum A22810; assay: In vitro antifungal activity, serial agar dilution method (Table 1a, footnote strain 1); type: cell-based, Microsporum gypseum; details: Nannizzia gypsea, strain per footnote **1, YM agar (pH 7.0, Difco), 30°C for 2 days (yeast) or 4 days (filamentous fungi), read-out: MICs, M. gypseum A22810
Method: as §1

[18] = tested on: T. rubrum A24195; assay: In vitro antifungal activity, serial agar dilution method (Table 1a, footnote strain 2); type: cell-based; details: Trichophyton rubrum, A24195, pH 7, read-out: MICs, T. rubrum A24195
Method: as §1

[19] = tested on: T. mentagrophytes A22838; assay: In vitro antifungal activity, serial agar dilution method (Table 1a, footnote strain 3); type: cell-based; details: Trichophyton mentagrophytes, strain per footnote **3, YM agar (pH 7.0, Difco), 30°C for 2 days (yeast) or 4 days (filamentous fungi), read-out: MICs, T. mentagrophytes A22838
Method: as §1

[20] = tested on: M. canis A22494; assay: In vitro antifungal activity, serial agar dilution method (Table 1a, footnote strain 6); type: cell-based; details: Microsporum canis, A22494, pH 7, read-out: MICs, M. canis A22494
Method: as §1

[21] = A25578, YM agar (pH 7.0, Difco), 30°C for 2 days (yeast) or 4 days (filamentous fungi), read-out: MICs, Candida albicans A25578
[22] = A9540, YM agar (pH 7.0, Difco), 30°C for 2 days (yeast) or 4 days (filamentous fungi), read-out: MICs, Candida albicans A9540
[23] = YM agar (pH 7.0, Difco), 30°C for 2 days (yeast) or 4 days (filamentous fungi), read-out: MICs, Candida paratropicalis A25825
[24] = A25812, YM agar (pH 7.0, Difco), 30°C for 2 days (yeast) or 4 days (filamentous fungi), read-out: MICs, Candida tropicalis A25812
[25] = A15053, YM agar (pH 7.0, Difco), 30°C for 2 days (yeast) or 4 days (filamentous fungi), read-out: MICs, Cryptococcus neoformans A15053
[26] = A26771, YM agar (pH 7.0, Difco), 30°C for 2 days (yeast) or 4 days (filamentous fungi), read-out: MICs, Trichophyton mentagrophytes A26771

CNC(=O)N(C)[C@@H]1[C@H](O)[C@@H](O)[C@H](O[C@H]2c3cc(C)c(C(=O)N[C@H](C)C(=O)O)c(O)c3-c3c(cc4c(c3O)C(=O)c3cc(OC)cc(O)c3C4=O)[C@@H]2O)O[C@@H]1C [Ex. 18, N-(N-methylcarbamoyl) pradimicin B]
MIC ([1]; A25578, pH 7, read-out: MICs, Candida albicans A25578): 25 µg/mL (≈ 32.6 µM)
MIC ([2]; A9540, pH 7, read-out: MICs, Candida albicans A9540): 25 µg/mL (≈ 32.6 µM)
MIC ([3]; pH 7, read-out: MICs, Candida paratropicalis A25825): 25 µg/mL (≈ 32.6 µM)
MIC [4]: 3.2 µg/mL (≈ 4.18 µM)
MIC ([5]; A25812, pH 7, read-out: MICs, Candida tropicalis A25812): 25 µg/mL (≈ 32.6 µM)
MIC ([6]; A15053, pH 7, read-out: MICs, Cryptococcus neoformans A15053): > 50 µg/mL
MIC ([7]; A26771, pH 7, read-out: MICs, Trichophyton mentagrophytes A26771): > 50 µg/mL
MIC [8]: > 50 µg/mL
MIC [9]: > 50 µg/mL
MIC [10]: > 50 µg/mL
solubility [11]: 4000 µg/mL (≈ 5220 µM)

C#CCN(C)[C@@H]1[C@H](O)[C@@H](O)[C@H](O[C@H]2c3cc(C)c(C(=O)N[C@H](C)C(=O)O)c(O)c3-c3c(cc4c(c3O)C(=O)c3cc(OC)cc(O)c3C4=O)[C@@H]2O)O[C@@H]1C [Ex. 23, N-(Propargyl) pradimicin B]
MIC [1, 21]: 1.6 µg/mL (≈ 2.14 µM)
MIC [2, 22]: 50 µg/mL (≈ 67 µM)
MIC [3, 23]: > 50 µg/mL
MIC [4]: 1.6 µg/mL (≈ 2.14 µM)
MIC [12]: 1.6 µg/mL (≈ 2.14 µM)
MIC [5, 24]: 50 µg/mL (≈ 67 µM)
MIC [6, 25]: 1.6 µg/mL (≈ 2.14 µM)
MIC [13]: 25 µg/mL (≈ 33.5 µM)
MIC [14]: 50 µg/mL (≈ 67 µM)
MIC [15]: 0.8 µg/mL (≈ 1.07 µM)
MIC [7, 26]: 25 µg/mL (≈ 33.5 µM)
MIC [8]: 25 µg/mL (≈ 33.5 µM)
PD₅₀ [16]: >50 mg/kg
solubility [11]: 500 µg/mL (≈ 670 µM)

COc1cc(O)c2c(c1)C(=O)c1c(cc3c(c1O)-c1c(cc(C)c(C(=O)N[C@H](C)C(=O)O)c1O)[C@H](O[C@@H]1O[C@H](C)[C@H](N(C)CC(=O)O)[C@H](O)[C@H]1O)[C@H]3O)C2=O [Ex. 4, N-carboxymethyl pradimicin B]
MIC [1, 21]: 1.6 µg/mL (≈ 2.09 µM)
MIC [2, 22]: 3.2 µg/mL (≈ 4.17 µM)
MIC [3, 23]: 3.2 µg/mL (≈ 4.17 µM)
MIC [4]: 1.6 µg/mL (≈ 2.09 µM)
MIC [12]: 1.6 µg/mL (≈ 2.09 µM)
MIC [5, 24]: 3.2 µg/mL (≈ 4.17 µM)
MIC [6, 25]: 1.6 µg/mL (≈ 2.09 µM)
MIC [13]: 6.3 µg/mL (≈ 8.22 µM)
MIC [14]: 25 µg/mL (≈ 32.6 µM)
MIC [15]: 0.8 µg/mL (≈ 1.04 µM)
MIC [7, 26]: 12.5 µg/mL (≈ 16.3 µM)
MIC [8]: 12.5 µg/mL (≈ 16.3 µM)
PD₅₀ [16]: >50** mg/kg
solubility [11]: > 10000 µg/mL

COc1cc(O)c2c(c1)C(=O)c1c(cc3c(c1O)-c1c(cc(C)c(C(=O)N[C@H](C)C(=O)O)c1O)[C@H](O[C@@H]1O[C@H](C)[C@H](N(C)C(=O)[C@@H](N)CCC(=O)O)[C@H](O)[C@H]1O)[C@H]3O)C2=O [Ex. 20, N-(L-glutamyl) pradimicin B formate salt]
MIC [1, 21]: 12.5 µg/mL
MIC [2, 22]: 25 µg/mL
MIC [3, 23]: 25 µg/mL
MIC [4]: 6.3 µg/mL
MIC [5, 24]: 25 µg/mL
MIC [6, 25]: 50 µg/mL
MIC [15]: 6.3 µg/mL
MIC [17]: 12.5 µg/mL
MIC [18]: 12.5 µg/mL
MIC [19]: 12.5 µg/mL
MIC [20]: 12.5 µg/mL
